pIC50: −log10 of the molar value. Structures can show the parent of a compound that is named as a salt.
Legend:
HeLa = assay: Anticancer activity against human HeLa cells assessed as inhibition of cell growth incubated for 48 hrs by MTT assay; format: functional, cell-based
HepG2 = assay: Anticancer activity against human HepG2 cells assessed as inhibition of cell growth incubated for 48 hrs by MTT assay; format: functional, cell-based; settings: HepG2, 48 h
MGC-803 = assay: Anticancer activity against human MGC-803 cells assessed as inhibition of cell growth incubated for 48 hrs by MTT assay; format: functional, cell-based; settings: MGC-803, 48 h
T-24 = assay: Anticancer activity against human T-24 cells assessed as inhibition of cell growth incubated for 48 hrs by MTT assay; format: functional, cell-based; settings: T-24, 48 h
[1] = Cytotoxicity against human LO2 cells assessed as reduction in cell viability incubated for 48 hrs by MTT assay; format: toxicity, cell-based, L02

pIC50 (HeLa) | pIC50 (HepG2) | pIC50 (MGC-803) | Structure (SMILES) | pIC50 (T-24) | IC50 at 48 h [1] [µM]
4.66 | 4.62 | 4.65 | CC(C)c1ccc2c(c1)CC[C@H]1[C@](C)(C(=O)OCc3cn(CC4CN(c5ccc(N6CCOCC6)cc5)C(=O)O4)nn3)CCC[C@]21C (stereo not given in full) | 4.15 | 21.4
4.44 | 4.54 | 4.58 | CC(C)c1ccc2c(c1)CC[C@H]1[C@](C)(C(=O)OCc3cn(CC4CN(c5ccc(N6CCOCC6)c(F)c5)C(=O)O4)nn3)CCC[C@]21C (stereo not given in full) | 4.20 | > 100
5.16 | 4.32 | 4.75 | CC(C)c1ccc2c(c1)CC[C@H]1[C@](C)(C(=O)OCc3cn(CC4CN(c5cccc(Cl)c5)C(=O)O4)nn3)CCC[C@]21C (stereo not given in full) | < 4.00 | 23.9
4.51 | 4.89 | 4.67 | CC(C)c1ccc2c(c1)CC[C@H]1[C@](C)(C(=O)OCc3cn(CC4CN(c5cccc([N+](=O)[O-])c5)C(=O)O4)nn3)CCC[C@]21C (stereo not given in full) | < 4.00 | 25.9
4.48 | 4.61 | 4.59 | CC(C)c1ccc2c(c1)CC[C@H]1[C@](C)(C(=O)OCc3cn(CC4CN(c5cccc(F)c5)C(=O)O4)nn3)CCC[C@]21C (stereo not given in full) | 4.21 | 29.1
5.11 | 4.51 | 5.15 | COc1ccc(N2CC(Cn3cc(COC(=O)[C@]4(C)CCC[C@]5(C)c6ccc(C(C)C)cc6CC[C@@H]45)nn3)OC2=O)cc1 (stereo not given in full) | 4.73 | 31.1
4.51 | 4.17 | 5.19 | CC(C)c1ccc2c(c1)CC[C@H]1[C@](C)(C(=O)OCc3cn(CC4CN(c5ccccc5Br)C(=O)O4)nn3)CCC[C@]21C (stereo not given in full) | 5.02 | 20.3
4.44 | 4.74 | 4.89 | CC(C)c1ccc2c(c1)CC[C@H]1[C@](C)(C(=O)OCc3cn(CC4CN(c5ccccc5)C(=O)O4)nn3)CCC[C@]21C (stereo not given in full) | < 4.00 | 20.8
4.23 | 4.63 | 4.61 | Cc1cccc(N2CC(Cn3cc(COC(=O)[C@]4(C)CCC[C@]5(C)c6ccc(C(C)C)cc6CC[C@@H]45)nn3)OC2=O)c1 (stereo not given in full) | 4.35 | 51.5
4.61 | 4.74 | 4.79 | CC(C)c1ccc2c(c1)CC[C@H]1[C@](C)(C(=O)OCc3cn(CC4CN(c5ccc(Cl)cc5)C(=O)O4)nn3)CCC[C@]21C (stereo not given in full) | 4.44 | 24.3
5.03 | 4.50 | 4.76 | CC(C)c1ccc2c(c1)CC[C@H]1[C@](C)(C(=O)OCc3cn(CC4CN(c5ccc(F)c(F)c5)C(=O)O4)nn3)CCC[C@]21C (stereo not given in full) | 4.58 | 23.4
6.11 | 5.46 | 5.62 | COc1cccc2c1C(=O)c1c(O)c3c(c(O)c1C2=O)C[C@@](O)(C(=O)CO)C[C@@H]3O[C@H]1C[C@H](N)[C@H](O)[C@H](C)O1 [DOXORUBICIN HYDROCHLORIDE] | 5.75 | 23.5
4.52 | 4.09 | < 4.00 | CC(C)c1ccc2c(c1)CC[C@H]1[C@](C)(C(=O)O)CCC[C@]21C [DEHYDROABIETIC ACID] | < 4.00 | > 100
4.85 | 4.87 | 4.96 | CC(C)c1ccc2c(c1)CC[C@H]1[C@](C)(C(=O)OCc3cn(CC4CN(c5ccccc5Cl)C(=O)O4)nn3)CCC[C@]21C (stereo not given in full) | 4.15 | 21.4
4.78 | 4.70 | 4.69 | CC(C)c1ccc2c(c1)CC[C@H]1[C@](C)(C(=O)OCc3cn(CC4CN(c5ccccc5F)C(=O)O4)nn3)CCC[C@]21C (stereo not given in full) | < 4.00 | 48.2
